Data: US11459546B2, “Method for producing somatic cell, somatic cell, and composition” (Kyoto Prefectural Public University Corporation, priority 2016, dated 2022)

Columns and labels:
human fibroblasts [1] = experiment: Induction of osteoblast from human fibroblast, von Kossa staining (Example C); assay type: cell-based; conditions: from comparison of combinations of Table 6, FIG. 14
Description: As materials, human fibroblasts were purchased from DS Pharma Biomedical Co., Ltd. The fibroblasts were derived from a skin of a human. The human fibroblasts were seeded on 35 mm dishes at a rate of 5×10^4 cells per a dish, and cultured in DMEM medium (Gibco) to which 10% fetal bovine serum (FBS), 100 U/ml penicillin and 100 μg/ml streptomycin under a condition at 37° C. and 5% CO2 were added to become confluent. Note that the DMEM refers to a Dulbecco's Modified Eagle Medium. The medium in the dish containing the human fibroblasts was exchanged to a RPMI1640 with L-Glutamine and Phenol Red (Wako Pure Chemical Industries, Ltd.) containing an osteoblast-inducer reagent (Takara Bio Inc.), and a low molecular weight compound added according to Table 1. Subsequently, the cells were cultured under the condition at 37° C. and 5% CO2 while exchanging the medium to the medium having the same composition every 3 days. The details of the compounds listed in Table 6 are as aforementioned in the present specification. As a result of culturing human fibroblasts according to the above (2), osteoblast-like cells appeared 7 days after the onset of culturing. Twenty-one days after the onset of culturing, the cells were subjected to von Kossa staining according to a conventional method, to evaluate the presence or absence of calcium deposition. In the figure, the upper pictures show the results of von Kossa staining, and the lower pictures present phase-contrast microscopic images in the same visual fields as of the upper pictures.

human fibroblasts [2] = experiment: Induction of chondrocyte from human fibroblast, Alcian Blue staining (Example D); assay type: cell-based; conditions: from comparison of combinations of Table 7, FIG. 15
Description: As materials, human fibroblasts were purchased from DS Pharma Biomedical Co., Ltd. The fibroblasts were derived from a skin of a human.
The human fibroblasts were seeded on 35 mm dishes at a rate of 5×10^4 cells per a dish, and cultured in DMEM medium (Gibco) to which 10% fetal bovine serum (FBS), 100 U/ml penicillin and 100 μg/ml streptomycin under a condition at 37° C. and 5% CO2 were added to become confluent. Note that the DMEM refers to a Dulbecco's Modified Eagle Medium.
The medium in the dish containing the human fibroblasts was exchanged to a DMEM (Thermo Fisher Scientific, Inc.) containing Insulin-Transferrin-Selenium (Thermo Fisher Scientific, Inc., final concentration: 1%), ascorbic acid-2-phosphate (Wako Pure Chemical Industries, Ltd., final concentration: 50 μg/ml), dexamethasone (Wako Pure Chemical Industries, Ltd., final concentration: 0.1 μM), TGF-β3 (PeproTech, Inc., final concentration: 10 ng/ml), L-proline (Nacalai Tesque, final concentration: 40 μg/ml), Antibiotic-Antimycotic (Thermo Fisher Scientific, Inc., final concentration: 1×), and a low molecular weight compound added according to Table 1. Subsequently, the cells were cultured under the condition at 37° C. and 5% CO2 while exchanging the medium to the medium having the same composition every 3 days. The details of the compounds listed in Table 7 are as aforementioned in the present specification.
As a result of culturing human fibroblasts according to Example (2), chondrocyte-like cells appeared 7 days after the onset of culturing. Twenty-one days after the onset of culturing, the cells were subjected to Alcian Blue staining according to a conventional method, to evaluate the presence or absence of acid polysaccharides which are a cartilage matrix. In the figure, the upper pictures show the results of Alcian Blue staining, and the lower pictures present phase-contrast microscopic images in the same visual fields as of the upper pictures.

human fibroblasts [3] = experiment: Induction of cardiomyocyte from human fibroblast, cTnT immunostaining (Example F); assay type: cell-based; conditions: from comparison of combinations of Table 9, FIG. 17
Description: (§1) As materials, human fibroblasts were purchased from DS Pharma Biomedical Co., Ltd. The fibroblasts were derived from a skin of a human. The human fibroblasts were seeded on 35 mm dishes at a rate of 8×10^4 cells per a dish, and cultured in DMEM high glucose medium (Gibco) to which 10% fetal bovine serum (FBS), 100 U/ml penicillin and 100 μg/ml streptomycin under a condition at 37° C. and 5% CO2 were added for 2 days. Note that the DMEM refers to a Dulbecco's Modified Eagle Medium. […] Subsequently, the cells were cultured under the condition at 37° C. and 5% CO2 while exchanging the medium to the medium having the same composition every 3 days. The details of the compounds listed in Table 9 are as aforementioned in the present specification. As a result of culturing the human fibroblasts in accordance with the above (2), shrinking or beating single cells or small cell masses were recognized 8 days after the onset of culturing. Twenty-one or more days after the onset of culturing, a large number of shrinking or beating cardiomyocyte-like masses were observed. Twenty-one days after the onset of culturing, the cells were immobilized with 2% paraformaldehyde, and then immunostained. For staining, an anti-cTnT antibody (ab10214, Abcam PLC; diluted 200-fold) was used. […] The lower pictures show phase-contrast microscopic images in the same visual fields as of the upper pictures.

human fibroblasts [4] = experiment: Induction of brown adipocyte from human fibroblast, UCP1 immunostaining (Example A); assay type: cell-based; conditions: from comparison of combinations of Table 1, FIG. 1
Description: as §1, with “(Wako Pure Chemical Industries, Ltd.)” for “(Gibco)”, “1” for “9”, “adipocyte-like” for “shrinking or beating single”, “appeared 6” for “or small cell masses were recognized 8”, “culturing.” for “culturing. Twenty-one or more days after the onset of culturing, a large number of shrinking or beating cardiomyocyte-like masses were observed.”, “immunostained.” for “immunostained. For staining, an anti-cTnT antibody (ab10214, Abcam PLC; diluted 200-fold) was used.”

human fibroblasts [5] = experiment: Induction of neural cell from human fibroblast, βIII-tubulin immunostaining (Example E); assay type: cell-based; conditions: from comparison of combinations of Table 8, FIG. 16
Description: As materials, human fibroblasts were purchased from DS Pharma Biomedical Co., Ltd. The fibroblasts were derived from a skin of a human. The human fibroblasts were seeded on 35 mm dishes at a rate of 8×10^4 cells per a dish, and cultured in DMEM high glucose medium (Wako Pure Chemical Industries, Ltd.) to which 10% fetal bovine serum (FBS), 100 U/ml penicillin and 100 μg/ml streptomycin under a condition at 37° C. and 5% CO2 were added for 2 days. Note that the DMEM refers to a Dulbecco's Modified Eagle Medium. […] Subsequently, the cells were cultured under the condition at 37° C. and 5% CO2 while exchanging the medium to the medium having the same composition every 3 days. The details of the compounds listed in Table 8 are as aforementioned in the present specification. As a result of culturing the human fibroblasts in accordance with the above (2), nerve-like projection structures were recognized 5 days after the onset of culturing. Fourteen days after the onset of culturing, the cells were immobilized with 2% paraformaldehyde, and then immunostained. For staining, an anti-βIII-tubulin antibody (MMS-435P, Covance; diluted 1000-fold) was used. […] The lower pictures show phase-contrast microscopic images in the same visual fields as of the upper pictures.

[6] = tested on: β adrenergic receptor signaling pathway in compound-induced brown adipocytes; experiment: Isoproterenol or forskolin treatment of compound-induced brown adipocytes, mRNA by QRT-PCR; assay type: cell-based, human; conditions: for expression of Cited1 after treatment / expression of Ckmt1 after treatment: 3 or 6 hours, FIGS. 12 C and D
Description: For the purpose of quantifying gene expression, the whole RNA was extracted from the fibroblasts treated with each compound, using the RNeasy Mini kit (QIAGEN N.V). As a control, a fibroblast was cultured in parallel, in the adipocyte medium. The cells were treated with 0.1 μM, 1 μM and 10 μM isoproterenol or forskolin for 3 hours or 6 hours, and then the whole RNA was extracted from the brown adipocytes induced with the compound and the control cell. The whole RNA was reversely transferred with ReverTraAce® PCR RT Master Mix with gDNA Remover (TOYOBO CO., LTD.), and then subjected to a real-time PCR analysis using Power SYBR Green PCR Master Mix (Thermo Fisher Scientific, Inc.). For one standard, 3 reactions were carried out under the following condition: 40 cycles of reactions at 95° C. for 10 minutes, at 95° C. for 15 seconds, and at 60° C. for 60 seconds. All results were standardized by the amount of the Tbp mRNA.
Thermogenesis through the Ucp1 is regulated through the sympathetic nervous system and the […] receptor signaling pathway in the brown adipocytes. For the purpose of evaluating the thermogenetic ability in the […] induced with the compounds, the brown adipocytes were treated with isoproterenols (β adrenergic receptor agonist) at 3 different concentrations for 3 hours or 6 hours, and then the Ucp1 mRNA was quantified (FIG. 12 A).

Row | SMILES | role of the component for differentiation of the osteoblasts (human fibroblasts [1]) | role of the component for differentiation of the chondrocytes (human fibroblasts [2]) | role of the component for differentiation into cardiomyocytes (human fibroblasts [3]) | further results
1 | Cc1c[nH]c(-c2cnc(NCCNc3ccc(C#N)cn3)nc2-c2ccc(Cl)cc2Cl)n1 [CHIR99021] | important | important |  | 
2 | c1ccc2c(-c3cnn4cc(-c5ccc(N6CCNCC6)cc5)cnc34)ccnc2c1 [LDN193189] | important | important |  | 
3 | O=C(NOC[C@H](O)CO)c1ccc(F)c(F)c1Nc1ccc(I)cc1F [PD0325901] | should not be added | not contained | important | 
4 | Cc1cccc(-c2n[nH]cc2-c2ccc3ncccc3n2)n1 [Repsox] |  |  | important | 
5 | NC(=O)c1ccc(-c2nc(-c3ccc4c(c3)OCO4)c(-c3ccccn3)[nH]2)cc1 [SB431542] | important | important |  | role of the component for differentiation into brown adipocytes (human fibroblasts [4]): preferable
6 | c1cc(-c2cnn3cc(-c4ccc(OCCN5CCCCC5)cc4)cnc23)ccn1 [dorsomorphin, Dorsomorphin] |  | not contained | important | role of the component for differentiation into brown adipocytes (human fibroblasts [4]): preferable; role of the component for differentiation into neural cells (human fibroblasts [5]): important
7 | C=C[C@@]1(C)CC(=O)[C@]2(O)[C@@]3(C)[C@@H](O)CCC(C)(C)[C@@H]3[C@H](O)[C@H](OC(C)=O)[C@@]2(C)O1 [forskolin, Forskolin] | important | important | important | Ucp1 expression, cells treated for 6 hours versus 3 hours ([6]; 0.1, 1 or 10 μM, FIG. 12 B): more enhanced; expression of Cited1 after treatment [6]: no significant change; expression of Ckmt1 after treatment [6]: no significant change
8 | CC(C)NCC(O)c1ccc(O)c(O)c1 (stereo not drawn) [isoproterenol, Isoproterenol] |  |  |  | Ucp1 mRNA, 3-hour treatment ([6]; 0.1, 1 or 10 μM, versus untreated cells, FIG. 12): slightly increased; expression of Cited1 after treatment [6]: no significant change; expression of Ckmt1 after treatment [6]: no significant change
